Experiments:
[1] = Rancimat oxidative stability (EN 14112) of biodiesel with additives; format: physicochemical; settings: for Rancimat oxidative stability: untreated 5.1 hours, EN 14112
Source text: The oxidative stability of biodiesel is an important property thereof and is subjected to criteria which may differ from country to country. In the US, oxidative testing of biodiesel is done according to ASTM 6751-08 whereby the B100 (100% biodiesel) must pass a minimum of three hours oxidative stability as done by the Rancimat test. The European oxidation criteria is a minimum of six hours as per EN 14112. Some commercial biodiesel manufacturers and blenders require even eight hours oxidative stability to ensure that B100 biodiesel stored for prolonged periods of time will be suitable for commerce.
Use was made in this example of a pure soy-biodiesel (methyl ester of soy oil) from a commercial source having a Rancimat oxidative stability (tested in accordance with EN 14112) of 5.1 hours.

[2] = 25° C.; cited from earlier work
[3] = Solubility tests of antioxidant package components in alkanolamine / hydroxylamine; format: physicochemical
Experimental: Additionally, 2 grams of octyldiethanolamine (ODEA) was added to the additive mixture.

[4] = 450 ppm added to B100 soy-biodiesel

Which Rancimat oxidative stability ([1]; 50 ppm added to B100 soy-biodiesel) does the source give for `CC1(C)CC(O)CC(C)(C)N1[O]` [4-HT, 4-hydroxy-2,2,6,6-tetramethylpiperidino-1-oxy] here?
Its Rancimat oxidative stability is 5.5 h.

Which oxidation stability ([1]; 250 ppm added to a different sample of soy methyl ester) does the source give for `CCCCN(CCO)CCO` [BDEA, butyldiethanolamine] here?
Its oxidation stability is 3.5 h.

What about the Rancimat oxidative stability [1, 4] of the same compound?
The Rancimat oxidative stability was 6.1 h.

Which vapor pressure [2] does the source give for `CCN(O)CC` [Diethylhydroxylamine, diethylhydroxylamine] here?
Its vapor pressure is 32 Torr.

Which “solubility in anhydrous DEHA” value ([3]; 0.5 grams 4-HT into 7.5 grams anhydrous DEHA, additionally 2 grams ODEA) does the source give for `CCCCCCCCN(CCO)CCO` [ODEA, octyldiethanolamine] here?
Its value is “completely soluble”.

And the Rancimat oxidative stability [1, 4]?
The Rancimat oxidative stability was 8.3 h.

For `CCCOC(=O)c1cc(O)c(O)c(O)c1` [propyl gallate], which “solubility in OAE” value ([3]; 0.5 grams 4-HT along with 1 gram propyl gallate into 15 grams OAE) is on record?
The value was “completely soluble”.

From patent US20110154724A1, “FATTY ESTER COMPOSITIONS WITH IMPROVED OXIDATIVE STABILITY” (TAMINCO, priority 2008, published 2011)
